Laboratory results from ChEMBL document CHEMBL1201862, “PubChem BioAssay data set” (2004).
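A five-concentration, 48-hour dose response in 96-well plates underlies each endpoint, interpolated linearly between surrounding concentrations. Here, GI50 denotes the concentration required for 50% inhibition of growth.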 Calls of active or inactive are those of the source. No stated cut-off is given here; in the data, active = GI50 up to about 1.1 µM and inactive = higher.

Columns and labels:
Experiment in all cases: growth of human tumour cells (NCI), 48 h
786-0 = test system: 786-0
A498 = test system: A498
A549 = test system: A549
ACHN = test system: ACHN
BT-549 = test system: BT-549
CAKI-1 = test system: CAKI-1
DU-145 = test system: DU-145
EKVX = test system: EKVX
HCC 2998 = test system: HCC 2998
HCT-116 = test system: HCT-116
HCT-15 = test system: HCT-15
HL-60 = test system: HL-60
HOP-62 = test system: HOP-62
HOP-92 = test system: HOP-92
HT-29 = test system: HT-29
Hs-578T = test system: Hs-578T
IGROV-1 = test system: IGROV-1
K562 = test system: K562
KM12 = test system: KM12
LOX IMVI = test system: LOX IMVI
M14 = test system: M14
MDA-MB-231 = test system: MDA-MB-231
MDA-MB-435 = test system: MDA-MB-435
MDA-N = test system: MDA-N
MOLT-4 = test system: MOLT-4
Malme-3M = test system: Malme-3M
NCI-H226 = test system: NCI-H226
NCI-H23 = test system: NCI-H23
NCI-H460 = test system: NCI-H460
NCI-H522 = test system: NCI-H522
NCI/ADR-RES = test system: NCI/ADR-RES
OVCAR-3 = test system: OVCAR-3
OVCAR-4 = test system: OVCAR-4
OVCAR-5 = test system: OVCAR-5
OVCAR-8 = test system: OVCAR-8
PC-3 = test system: PC-3
RPMI-8226 = test system: RPMI-8226
RXF 393 = test system: RXF 393
SF-268 = test system: SF-268
SF-295 = test system: SF-295
SK-MEL-28 = test system: SK-MEL-28
SK-MEL-2 = test system: SK-MEL-2
SK-MEL-5 = test system: SK-MEL-5
SN12C = test system: SN12C
SNB-19 = test system: SNB-19
SR = test system: SR
SW-620 = test system: SW-620
T47D = test system: T47D
TK-10 = test system: TK-10
U-251 = test system: U-251
UACC-257 = test system: UACC-257
UACC-62 = test system: UACC-62
UO-31 = test system: UO-31

In the case of `CC(c1ccccc1)N1CCN(C(C)c2ccccc2)CC1` (stereo not drawn), the GI50 (786-0) is reported as > 100 µM (inactive), the GI50 (A498) is reported as 77.4 µM (inactive) and the GI50 (A549) is reported as > 100 µM (inactive). For the same compound, the GI50 (ACHN) was > 100 µM (inactive), the GI50 (BT-549) was > 100 µM (inactive) and the GI50 (CAKI-1) was > 100 µM (inactive). For the same compound, the GI50 (DU-145) was > 100 µM (inactive), the GI50 (EKVX) was > 100 µM (inactive) and the GI50 (HCC 2998) was 20.1 µM (inactive). The GI50 (HCT-116) was 43.5 µM (inactive), the GI50 (HCT-15) was 57.1 µM and the GI50 (HL-60) was > 100 µM (inactive). For the same compound, the GI50 (HOP-62) was > 100 µM (inactive), the GI50 (HOP-92) was 31.6 µM (inactive) and the GI50 (HT-29) was 44.8 µM (inactive). For the same compound, the GI50 (Hs-578T) was > 100 µM (inactive), the GI50 (IGROV-1) was > 100 µM (inactive) and the GI50 (K562) was 27.7 µM (inactive). The GI50 (KM12) was > 100 µM (inactive), the GI50 (LOX IMVI) was > 100 µM (inactive) and the GI50 (M14) was 22.8 µM (inactive). For the same compound, the GI50 (MDA-MB-231) was > 100 µM (inactive), the GI50 (MDA-MB-435) was 80.4 µM (inactive) and the GI50 (MDA-N) was 45.6 µM (inactive). For the same compound, the GI50 (MOLT-4) was 39.5 µM (inactive), the GI50 (Malme-3M) was 56.6 µM (inactive) and the GI50 (NCI-H226) was > 100 µM (inactive). For the same compound, the GI50 (NCI-H23) was > 100 µM (inactive), the GI50 (NCI-H460) was 65.2 µM (inactive) and the GI50 (NCI-H522) was > 100 µM (inactive). For the same compound, the GI50 (NCI/ADR-RES) was > 100 µM (inactive), the GI50 (OVCAR-3) was 35.4 µM (inactive) and the GI50 (OVCAR-4) was > 100 µM (inactive). The GI50 (OVCAR-5) was > 100 µM (inactive), the GI50 (OVCAR-8) was > 100 µM (inactive) and the GI50 (PC-3) was > 100 µM (inactive). The GI50 (RPMI-8226) was 26.1 µM (inactive), the GI50 (RXF 393) was 79.6 µM (inactive) and the GI50 (SF-268) was > 100 µM (inactive). The GI50 (SF-295) was > 100 µM (inactive), the GI50 (SK-MEL-28) was 29 µM (inactive) and the GI50 (SK-MEL-2) was 35.2 µM (inactive). The GI50 (SK-MEL-5) was 17.1 µM (inactive), the GI50 (SN12C) was > 100 µM (inactive) and the GI50 (SNB-19) was > 100 µM (inactive). For the same compound, the GI50 (SR) was 35.8 µM (inactive), the GI50 (SW-620) was > 100 µM (inactive) and the GI50 (T47D) was > 100 µM (inactive). The GI50 (TK-10) was > 100 µM (inactive), the GI50 (U-251) was > 100 µM (inactive) and the GI50 (UACC-257) was 68.7 µM (inactive). The GI50 (UACC-62) was 40.8 µM (inactive) and the GI50 (UO-31) was > 100 µM (inactive).
